{
  "source": "patent US20240376153A1",
  "about": "“CNP CYCLIC PEPTIDE, AND MEDICINE, EXTERNAL PREPARATION AND COSMETIC EACH CONTAINING SAID CYCLIC PEPTIDE” (Igisu Co., Ltd., priority 2015, published 2024)",
  "key": {"[1]": {"system": "nasal cavity, the affected site", "experiment": "Effect on nose of cyclic peptides in which amino acid was substituted", "conditions": "nasal application once/day", "description": "The obtained cyclic peptide was combined with purified water at 1, 5, 30, 100, 500 μg/ml and applied to the affected site. Formulations A to E in the tables refers to the cyclic peptide of 1, 5, 30, 100, 500 μg/ml, respectively."}, "affected site of skin": {"system": "affected site of skin", "experiment": "Effect on skin of cyclic peptides in which amino acid was substituted", "assay_type": "in vivo, human", "experimental": "Formulations A to E refers to cyclic peptide concentration of 1, 5, 30, 100, 500 μg/ml, respectively."}, "[2]": {"conditions": "atopic dermatitis, Formulation B (5 μg/ml in purified water) applied to affected site"}, "[3]": {"conditions": "psoriasis vulgaris, Formulation C (30 μg/ml)"}, "[4]": {"conditions": "atopic dermatitis, Formulation C (30 μg/ml in purified water) applied to affected site"}, "[5]": {"conditions": "rough skin, Formulation A (1 μg/ml)"}, "[6]": {"conditions": "rough skin, Formulation C (30 μg/ml)"}},
  "note": "Entries after “also recorded” stand apart in the source; their conditions may differ. Positions of bridges follow the written chain, without caps; N, C: chain ends. Residues, ends and D or L forms follow the SMILES beside them. No end group written: not given here.",
  "data": [
    {"compound": "CC[C@H](C)[C@@H]1NC(=O)CNC(=O)[C@H](CO)NC(=O)[C@H](CCSC)NC(=O)[C@H]([C@@H](C)O)NC(=O)CNC(=O)[C@H]([C@@H](C)CC)NC(=O)[C@H](CCCNC(=N)N)NC(=O)[C@H](CC(=O)O)NC(=O)[C@H](CC(C)C)NC(=O)[C@H](CCCCN)NC(=O)[C@H](CC(C)C)NC(=O)CNC(=O)[C@H](Cc2ccccc2)NC(=O)[C@@H](N)CSSC[C@@H](C(=O)O)NC(=O)CNC1=O", "note": "[SEQ ID NO: 40] (H-CFGLKLDRIGTMSGIGC-OH; disulfide 1-17; N-terminus and C-terminus assumed)", "values": [
      {"measurement": "irritation upon nasal application", "setting": "[1]; Formulation C = 30 μg/ml", "result": "There was no irritation upon nasal application."}
    ]},
    {"compound": "CC[C@H](C)[C@@H]1NC(=O)[C@H](CCCNC(=N)N)NC(=O)[C@H](CC(=O)O)NC(=O)[C@H](CC(C)C)NC(=O)[C@H](CCCCN)NC(=O)[C@H](CC(C)C)NC(=O)[C@H](C)NC(=O)[C@H](Cc2ccccc2)NC(=O)[C@@H](N)CSSC[C@@H](C(=O)O)NC(=O)CNC(=O)[C@H](CC(C)C)NC(=O)CNC(=O)[C@H]([C@@H](C)O)NC(=O)[C@H](CCSC)NC(=O)[C@H](CO)NC(=O)CNC1=O", "note": "[SEQ ID NO: 34] (H-CFALKLDRIGSMTGLGC-OH; disulfide 1-17; N-terminus and C-terminus assumed)", "values": [
      {"measurement": "irritation upon nasal application", "setting": "[1]; Formulation B = 5 μg/ml", "result": "There was no irritation upon nasal application."}
    ]},
    {"compound": "CC[C@H](C)[C@@H]1NC(=O)CNC(=O)[C@H](CO)NC(=O)[C@H](CCSC)NC(=O)[C@H](CO)NC(=O)CNC(=O)[C@H]([C@@H](C)CC)NC(=O)[C@H](CCCNC(=N)N)NC(=O)[C@H](CC(=O)O)NC(=O)[C@H](CCSC)NC(=O)[C@H](CCCCN)NC(=O)[C@H](CC(C)C)NC(=O)[C@H](C)NC(=O)[C@H](Cc2ccccc2)NC(=O)[C@@H](N)CSSC[C@@H](C(=O)O)NC(=O)CNC1=O", "note": "[SEQ ID NO: 50] (H-CFALKMDRIGSMSGIGC-OH; disulfide 1-17; N-terminus and C-terminus assumed)", "values": [
      {"measurement": "irritation upon nasal application", "setting": "[1]; Formulation C = 30 μg/ml", "result": "stopped. There was no irritation upon nasal application."}
    ]},
    {"compound": "CC[C@H](C)[C@@H]1NC(=O)[C@H](CCCNC(=N)N)NC(=O)[C@H](CC(=O)O)NC(=O)[C@H](CC(C)C)NC(=O)[C@H](CCCCN)NC(=O)[C@H](CC(C)C)NC(=O)CNC(=O)[C@H](Cc2ccccc2)NC(=O)[C@@H](N)CSSC[C@@H](C(=O)O)NC(=O)CNC(=O)[C@H](CC(C)C)NC(=O)CNC(=O)[C@H](C)NC(=O)[C@H](CCSC)NC(=O)[C@H](CO)NC(=O)CNC1=O", "note": "[SEQ ID NO: 16] (H-CFGLKLDRIGSMAGLGC-OH; disulfide 1-17; N-terminus and C-terminus assumed)", "values": [
      {"measurement": "irritation upon nasal application", "setting": "[1]; Formulation C = 30 μg/ml", "result": "clear. There was no irritation upon nasal application."}
    ]},
    {"compound": "CC[C@H](C)[C@@H]1NC(=O)CNC(=O)[C@H](CO)NC(=O)[C@H](CCSC)NC(=O)[C@H](CO)NC(=O)CNC(=O)[C@H]([C@@H](C)CC)NC(=O)[C@H](CCCNC(=N)N)NC(=O)[C@H](CC(=O)O)NC(=O)[C@H](CC(C)C)NC(=O)[C@H](CCCCN)NC(=O)[C@H](CC(C)C)NC(=O)CNC(=O)[C@H](Cc2ccccc2)NC(=O)[C@@H](N)CSSC[C@@H](C(=O)O)NC(=O)CNC1=O", "note": "[SEQ ID NO: 19] (H-CFGLKLDRIGSMSGIGC-OH; disulfide 1-17; N-terminus and C-terminus assumed)", "values": [
      {"measurement": "irritation upon nasal application", "setting": "[1]; Formulation C = 30 μg/ml", "result": "There was no irritation upon nasal application."}
    ]},
    {"compound": "CC[C@H](C)[C@@H]1NC(=O)[C@H](CCCNC(=N)N)NC(=O)[C@H](CC(=O)O)NC(=O)[C@H](CC(C)C)NC(=O)[C@H](CCCCN)NC(=O)[C@H](CC(C)C)NC(=O)CNC(=O)[C@H](Cc2ccccc2)NC(=O)[C@@H](N)CSSC[C@@H](C(=O)O)NC(=O)CNC(=O)[C@H](CC(C)C)NC(=O)CNC(=O)[C@H](CO)NC(=O)[C@H](CCSC)NC(=O)[C@H]([C@@H](C)O)NC(=O)CNC1=O", "note": "[SEQ ID NO: 10] (H-CFGLKLDRIGTMSGLGC-OH; disulfide 1-17; N-terminus and C-terminus assumed)", "values": [
      {"measurement": "irritation upon nasal application", "setting": "[1]; Formulation C = 30 μg/ml", "result": "There was no irritation upon nasal application."}
    ]},
    {"compound": "SEQ ID NO: 14: cyclic peptide in which one amino acid has been substituted (CFGLKLDRIGLMSGLGC; disulfide 1-17)", "values": [
      {"measurement": "Post-treatment diagnostic skin impression", "setting": "affected site of skin; [2]", "result": "After 1 min, itches, scales, erythema"},
      {"measurement": "Post-treatment diagnostic skin impression", "setting": "affected site of skin; [3]", "result": "After 3 min, scales, crusts and infiltration were remitted."}
    ]},
    {"compound": "SEQ ID NO: 37: cyclic peptide in which two amino acids have been substituted (CFGLKMDRIGSMTGLGC; disulfide 1-17)", "values": [
      {"measurement": "Post-treatment diagnostic skin impression", "setting": "affected site of skin; atopic dermatitis, Formulation A (1 μg/ml in purified water) applied to affected site", "result": "After 2 min, itches were eliminated."},
      {"measurement": "Post-treatment diagnostic skin impression", "setting": "affected site of skin; [4]", "result": "Immediately after application, itches were remitted,; also recorded: erythema, infiltration and scales were remarkably improved"}
    ]},
    {"compound": "SEQ ID NO: 32 (CFALKMDRIGSMSGLGC; disulfide 1-17)", "values": [
      {"measurement": "Post-treatment diagnostic skin impression", "setting": "affected site of skin; [3]", "result": "remitted. After 10 min, erythema was further remitted."},
      {"measurement": "Post-treatment diagnostic skin impression", "setting": "affected site of skin; rough skin, acne (comedo), Formulation C (30 μg/ml)", "result": "Immediately after application, itches were eliminated; also recorded: (comedo) was reduced"}
    ]},
    {"compound": "SEQ ID NO: 49: cyclic peptide in which three amino acids have been substituted (CFALKMDRIGSMTGLGC; disulfide 1-17)", "values": [
      {"measurement": "Post-treatment diagnostic skin impression", "setting": "affected site of skin; psoriasis vulgaris, Formulation A (1 μg/ml)", "result": "erythema were remitted."}
    ]},
    {"compound": "SEQ ID NO: 15: cyclic peptide in which one amino acid has been substituted (CFGLKLDRIGSMTGLGC; disulfide 1-17)", "values": [
      {"measurement": "Post-treatment diagnostic skin impression", "setting": "affected site of skin; psoriasis vulgaris, Formulation B (5 μg/ml)", "result": "remarkably remitted, crusts were eliminated."},
      {"measurement": "Post-treatment diagnostic skin impression", "setting": "affected site of skin; psoriasis, Formulation B (5 μg/ml)", "result": "After 3 min, scales were remitted. 3 min after further; also recorded: reduced"},
      {"measurement": "Post-treatment diagnostic skin impression", "setting": "affected site of skin; rough skin, wrinkles, Formulation A (1 μg/ml)", "result": "kept moistened, facial erythema and scales were normalized."},
      {"measurement": "Post-treatment diagnostic skin impression", "setting": "affected site of skin; seborrheic dermatitis, Formulation C (30 μg/ml)", "result": "Immediately after application, itches were remitted"}
    ]},
    {"compound": "SEQ ID NO: 38: cyclic peptide in which two amino acids have been substituted (CFGLKMDRIGSMSGIGC; disulfide 1-17)", "values": [
      {"measurement": "Post-treatment diagnostic skin impression", "setting": "affected site of skin; [4]", "result": "After 1 min, itches were eliminated; also recorded: improved. After 3 min, skin was almost normalized and; also recorded: moisturized"},
      {"measurement": "Post-treatment diagnostic skin impression", "setting": "affected site of skin; contact dermatitis, Formulation C (30 μg/ml)", "result": "After 1 min, itches was remitted; also recorded: After 3 min, swelling lessened, erythema was remitted"},
      {"measurement": "Post-treatment diagnostic skin impression", "setting": "affected site of skin; [3]", "result": "After 3 min, scales and infiltration were remitted"},
      {"measurement": "Post-treatment diagnostic skin impression", "setting": "affected site of skin; rough skin, contact dermatitis, Formulation A (1 μg/ml), two-sided application (right vs left)", "result": "After 2 min, rought desiccation and erythema was remitted,; also recorded: skin texture was improved and moisturized"},
      {"measurement": "Post-treatment diagnostic skin impression", "setting": "affected site of skin; rough skin, wrinkles, Formulation B (5 μg/ml)", "result": "shallowed, skin was full and given resilience."},
      {"measurement": "Post-treatment diagnostic skin impression", "setting": "affected site of skin; [5]", "result": "kept moistened."}
    ]},
    {"compound": "SEQ ID NO: 8: cyclic peptide in which one amino acid has been substituted (CFGLKMDRIGSMSGLGC; disulfide 1-17)", "values": [
      {"measurement": "Post-treatment diagnostic skin impression", "setting": "affected site of skin; atopic dermatitis, Formulation A (1 μg/ml), two-sided application (right vs left) in the same subject", "result": "After 1 min, erythema, infiltration, itches were remitted; also recorded: After 2 min, stining feeling was eliminated; also recorded: Immediately after application, itches were eliminated; also recorded: improved, skin texture was improved and moistened"},
      {"measurement": "Post-treatment diagnostic skin impression", "setting": "affected site of skin; [2]", "result": "Immediately after application, itches were eliminated,; also recorded: erythema and scales were remitted"},
      {"measurement": "Post-treatment diagnostic skin impression", "setting": "affected site of skin; [4]", "result": "the day next, erythema was remarkably improved; also recorded: After stopping 3 days of application, the effects lasted"},
      {"measurement": "Post-treatment diagnostic skin impression", "setting": "affected site of skin; [5]", "result": "Immediately after application itches were eliminated; also recorded: After 3 min, skin texture was improved finely, pore"},
      {"measurement": "Post-treatment diagnostic skin impression", "setting": "affected site of skin; seborrheic dermatitis, acne (comedo), Formulation C (30 μg/ml)", "result": "After 1 min, itches were eliminated; also recorded: opening became inconspicuous, acne (comedo) was reduced"}
    ]},
    {"compound": "SEQ ID NO: 12: cyclic peptide in which one amino acid has been substituted (CFGLKLDRIGVMSGLGC; disulfide 1-17)", "values": [
      {"measurement": "Post-treatment diagnostic skin impression", "setting": "affected site of skin; [6]", "result": "improved."}
    ]},
    {"compound": "SEQ ID NO: 17: cyclic peptide in which one amino acid has been substituted (CFGLKLDRIGSMSGAGC; disulfide 1-17)", "values": [
      {"measurement": "Post-treatment diagnostic skin impression", "setting": "affected site of skin; [4]", "result": "Immediately after application, itches were eliminated; also recorded: remitted"}
    ]},
    {"compound": "SEQ ID NO: 51: cyclic peptide in which three amino acids have been substituted (CFGLKMDRIGTMTGLGC; disulfide 1-17)", "values": [
      {"measurement": "Post-treatment diagnostic skin impression", "setting": "affected site of skin; [4]", "result": "Immediately after application, itches were eliminated; also recorded: scratch scars were remitted"},
      {"measurement": "Post-treatment diagnostic skin impression", "setting": "affected site of skin; eczema, Formulation B (5 μg/ml)", "result": "Immediately after application, itches were eliminated; also recorded: After 3 min, erythema and infiltration were remitted"}
    ]},
    {"compound": "SEQ ID NO: 35: cyclic peptide in which two amino acids have been substituted (CFALKLDRIGSMSGIGC; disulfide 1-17)", "values": [
      {"measurement": "Post-treatment diagnostic skin impression", "setting": "affected site of skin; [2]", "result": "Immediately after application, itches were eliminated,; also recorded: erythema ard scales were remarkably improved"},
      {"measurement": "Post-treatment diagnostic skin impression", "setting": "affected site of skin; [4]", "result": "After 1 min, itches were eliminated; also recorded: After 2 min, scales and erythema were remarkably improved; also recorded: After 3 min, skin was almost normalized and moisturized"}
    ]},
    {"compound": "SEQ ID NO: 6: cyclic peptide in which one amino acid has been substituted (CFALKLDRIGSMSGLGC; disulfide 1-17)", "values": [
      {"measurement": "Post-treatment diagnostic skin impression", "setting": "affected site of skin; eczema, large winkles, Formulation B (5 μg/ml)", "result": "Immediately after application, itches were eliminated."},
      {"measurement": "Post-treatment diagnostic skin impression", "setting": "affected site of skin; [6]", "result": "texture was improved. After 2 min, wrinkles were shallowed,; also recorded: skin was full and given resilience; also recorded: Immediately after application, itches were eliminated, skin"}
    ]}
  ]
}
